Assay type in all cases: biochemical
The target in experiment [1] is MMP-1h (Homo sapiens (Human), UniProt P03956). The experiment is described as follows: Inhibition constant (Ki) on MMP-1h. The note with it: for Ki: read-out: Ki MMP-1h, human MMP-1. The text has this:
(§1) The inhibition constant Ki of these compounds has been determined according to the protocol described by Devel et al, 2006, J. Biol. Chem. (7).
(§2) In this table I and also in table II below, “h” corresponds to human. All of the compounds have therefore been evaluated on human MMPs.

The target of experiment [2] is MMP-2h (Homo sapiens (Human), UniProt P08253). The experiment can be described thus: Inhibition constant (Ki) on MMP-2h. The note with it: for Ki: read-out: Ki MMP-2h, human MMP-2. In short, it runs like this:
(§3)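 Following an established literature procedure, each compound's inhibition constant was measured on the human form of each enzyme.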

In experiment [3] the target is MMP-3h (Homo sapiens (Human), UniProt P08254). The experiment can be described thus: Inhibition constant (Ki) on MMP-3h. The settings on record: for Ki: read-out: Ki MMP-3h, human MMP-3. In short, it runs like this: as §3
For experiment [4], the target named is MMP-7h (Homo sapiens (Human), UniProt P09237). The experiment can be described thus: Inhibition constant (Ki) on MMP-7h. The note with it: for Ki: read-out: Ki MMP-7h, human MMP-7.
Excerpt: as §1, §2

For experiment [5], the target named is MMP-8h (Homo sapiens (Human), UniProt P22894). The experiment can be described thus: Inhibition constant (Ki) on MMP-8h. The note with it: for Ki: read-out: Ki MMP-8h, human MMP-8.
In experiment [6] the target is MMP-9h (Homo sapiens (Human), UniProt P14780). The experiment can be described thus: Inhibition constant (Ki) on MMP-9h. The note with it: for Ki: read-out: Ki MMP-9h, human MMP-9. In short, it runs like this: as §3
Experiment [7] deals with MMP-10h (Homo sapiens (Human), UniProt P09238). The experiment can be described thus: Inhibition constant (Ki) on MMP-10h. The note with it: for Ki: read-out: Ki MMP-10h, human MMP-10.
Experiment [8] concerns the target MMP-12h (Homo sapiens (Human), UniProt P39900). The experiment can be described thus: Inhibition constant (Ki) on MMP-12h. The note with it: for Ki: read-out: Ki MMP-12h, human MMP-12.
Experiment [9] concerns the target MMP-13h (Homo sapiens (Human), UniProt P45452). The experiment can be described thus: Inhibition constant (Ki) on MMP-13h. The note with it: for Ki: read-out: Ki MMP-13h, human MMP-13. In short, it runs like this: as §3
Experiment [10] deals with MMP-14h (Homo sapiens (Human), UniProt P50281). The experiment is described as follows: Inhibition constant (Ki) on MMP-14h. The settings on record: for Ki: read-out: Ki MMP-14h, human MMP-14. In short, it runs like this: as §3
The subject of experiment [11] is human MMPs. The experiment is described as follows: Inhibition of the panel of human MMPs (overall statements, selectivity). The settings on record: other human MMPs versus MMP-12.

By Ki is commonly meant the equilibrium dissociation constant of an inhibitor or competing ligand from its target.

Chain of MMP-10h (P09238 99-476): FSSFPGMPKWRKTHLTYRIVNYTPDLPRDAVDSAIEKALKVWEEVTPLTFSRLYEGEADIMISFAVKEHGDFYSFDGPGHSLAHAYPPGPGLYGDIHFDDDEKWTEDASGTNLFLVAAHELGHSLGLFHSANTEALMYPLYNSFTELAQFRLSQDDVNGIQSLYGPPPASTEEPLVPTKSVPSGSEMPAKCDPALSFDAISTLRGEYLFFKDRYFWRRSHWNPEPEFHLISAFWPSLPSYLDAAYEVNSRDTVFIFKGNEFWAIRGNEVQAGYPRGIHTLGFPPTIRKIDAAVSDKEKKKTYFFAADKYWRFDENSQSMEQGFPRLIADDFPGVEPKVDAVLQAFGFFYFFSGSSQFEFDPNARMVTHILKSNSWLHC
Chain of MMP-1h (P03956 100-469): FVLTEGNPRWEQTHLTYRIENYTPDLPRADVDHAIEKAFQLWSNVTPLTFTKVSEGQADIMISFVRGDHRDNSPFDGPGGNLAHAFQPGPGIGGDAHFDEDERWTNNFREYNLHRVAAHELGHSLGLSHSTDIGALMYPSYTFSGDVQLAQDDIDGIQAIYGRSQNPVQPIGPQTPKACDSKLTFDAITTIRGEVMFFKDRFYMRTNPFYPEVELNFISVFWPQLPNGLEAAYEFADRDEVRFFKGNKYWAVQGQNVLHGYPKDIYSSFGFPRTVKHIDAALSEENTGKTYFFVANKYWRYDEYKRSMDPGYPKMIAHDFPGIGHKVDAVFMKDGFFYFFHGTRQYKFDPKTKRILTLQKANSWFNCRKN
Chain of MMP-2h (P08253 110-660): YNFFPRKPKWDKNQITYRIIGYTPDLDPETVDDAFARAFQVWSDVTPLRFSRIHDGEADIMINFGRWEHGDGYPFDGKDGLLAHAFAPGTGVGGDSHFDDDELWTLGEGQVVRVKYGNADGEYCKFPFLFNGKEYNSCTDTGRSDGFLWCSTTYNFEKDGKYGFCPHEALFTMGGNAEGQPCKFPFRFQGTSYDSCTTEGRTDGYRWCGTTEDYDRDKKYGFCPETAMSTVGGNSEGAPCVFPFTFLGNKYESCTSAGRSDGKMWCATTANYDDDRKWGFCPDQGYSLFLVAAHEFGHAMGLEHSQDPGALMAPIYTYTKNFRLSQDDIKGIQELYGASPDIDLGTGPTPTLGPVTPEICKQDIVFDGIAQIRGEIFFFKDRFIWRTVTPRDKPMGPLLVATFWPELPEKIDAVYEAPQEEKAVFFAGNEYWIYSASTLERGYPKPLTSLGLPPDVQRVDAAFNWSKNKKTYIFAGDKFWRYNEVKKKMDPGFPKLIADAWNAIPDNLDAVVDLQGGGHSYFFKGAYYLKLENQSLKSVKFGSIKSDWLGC
Chain of MMP-3h (P08254 100-477): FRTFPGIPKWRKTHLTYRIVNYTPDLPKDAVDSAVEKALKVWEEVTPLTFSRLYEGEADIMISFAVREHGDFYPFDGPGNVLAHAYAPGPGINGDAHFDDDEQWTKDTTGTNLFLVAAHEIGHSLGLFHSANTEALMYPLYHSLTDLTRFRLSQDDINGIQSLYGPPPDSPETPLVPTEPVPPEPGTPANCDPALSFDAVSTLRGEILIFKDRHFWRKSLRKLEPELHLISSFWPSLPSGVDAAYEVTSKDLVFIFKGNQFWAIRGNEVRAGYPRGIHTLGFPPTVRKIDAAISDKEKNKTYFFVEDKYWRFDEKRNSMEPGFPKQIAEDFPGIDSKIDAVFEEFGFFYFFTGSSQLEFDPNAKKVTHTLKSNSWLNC
Chain of MMP-9h (P14780 94-707): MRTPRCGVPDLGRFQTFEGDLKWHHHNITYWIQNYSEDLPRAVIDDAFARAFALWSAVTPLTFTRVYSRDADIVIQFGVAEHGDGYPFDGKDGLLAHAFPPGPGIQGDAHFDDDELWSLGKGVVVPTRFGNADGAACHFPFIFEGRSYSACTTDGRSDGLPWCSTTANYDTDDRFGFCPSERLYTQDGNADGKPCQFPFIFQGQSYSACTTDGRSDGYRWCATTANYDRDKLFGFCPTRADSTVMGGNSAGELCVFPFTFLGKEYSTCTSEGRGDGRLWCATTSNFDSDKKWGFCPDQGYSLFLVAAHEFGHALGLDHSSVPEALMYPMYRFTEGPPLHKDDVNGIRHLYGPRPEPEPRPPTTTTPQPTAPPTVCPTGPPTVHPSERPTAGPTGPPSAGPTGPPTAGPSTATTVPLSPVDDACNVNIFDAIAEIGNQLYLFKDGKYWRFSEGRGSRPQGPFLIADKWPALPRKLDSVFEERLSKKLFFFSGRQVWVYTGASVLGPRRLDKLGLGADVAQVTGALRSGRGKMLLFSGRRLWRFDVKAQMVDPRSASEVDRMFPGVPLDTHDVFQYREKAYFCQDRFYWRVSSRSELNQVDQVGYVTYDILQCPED
Chain of MMP-7h (P09237 95-267): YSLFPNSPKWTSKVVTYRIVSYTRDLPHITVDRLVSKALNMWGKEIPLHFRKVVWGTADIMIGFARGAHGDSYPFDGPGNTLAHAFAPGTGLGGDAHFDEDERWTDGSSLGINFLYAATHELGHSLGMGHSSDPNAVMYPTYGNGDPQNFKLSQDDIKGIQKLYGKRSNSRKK
Chain of MMP-12h (P39900 106-470): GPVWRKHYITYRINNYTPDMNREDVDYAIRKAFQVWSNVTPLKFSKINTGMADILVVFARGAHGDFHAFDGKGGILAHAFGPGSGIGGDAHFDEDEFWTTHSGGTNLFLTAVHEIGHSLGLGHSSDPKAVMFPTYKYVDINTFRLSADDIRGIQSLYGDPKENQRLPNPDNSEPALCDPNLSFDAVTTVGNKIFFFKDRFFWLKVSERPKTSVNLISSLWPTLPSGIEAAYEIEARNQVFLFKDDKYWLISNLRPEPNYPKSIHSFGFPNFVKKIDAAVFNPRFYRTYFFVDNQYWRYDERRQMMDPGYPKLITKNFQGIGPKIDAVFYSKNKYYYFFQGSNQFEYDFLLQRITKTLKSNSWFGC
Chain of MMP-8h (P22894 101-467): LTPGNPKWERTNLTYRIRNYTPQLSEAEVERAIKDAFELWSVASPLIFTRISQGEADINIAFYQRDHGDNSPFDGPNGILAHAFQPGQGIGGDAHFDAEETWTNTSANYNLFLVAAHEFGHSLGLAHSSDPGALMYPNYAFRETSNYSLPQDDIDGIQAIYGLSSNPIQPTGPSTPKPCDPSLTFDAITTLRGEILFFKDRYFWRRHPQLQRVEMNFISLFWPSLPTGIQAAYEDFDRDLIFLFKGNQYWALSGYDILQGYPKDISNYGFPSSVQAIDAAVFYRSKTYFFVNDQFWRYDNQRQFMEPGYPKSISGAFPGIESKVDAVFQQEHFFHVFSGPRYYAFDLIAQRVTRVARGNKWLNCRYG

As for `NC(=O)[C@H](CCC(=O)O)NC(=O)[C@H](CCC(=O)O)NC(=O)[C@@H](CC(=O)O)Cc1ccc(-c2cc(-c3ccccc3)cs2)cc1` [95 bis, (S)-5-amino-4-((S)-4-carboxy-2-((R)-3-carboxy-2-(4-(4-phenylthiophen-2-yl)benzyl)propanamido)butanamido)-5-oxopentanoic acid], the “Selectivity factor/MMP12, MMP-1h” value in experiment [1] (Ki MMP-1h/Ki MMP-12) is given as 3333. The Ki in experiment [1] was above 1000 nM; in experiment [2], 401 nM; in experiment [3], 579 nM; in experiment [4] it was above 1000 nM; in experiment [5] it was 520 nM; in [6], above 1000 nM. For the same compound, the Ki in experiment [7] was determined as 80 nM; in [8] it was 0.3 nM; in [9], 198 nM; in experiment [10] it was 118 nM. The “Selectivity factor/MMP12, MMP-2h” value in [2] (Ki MMP-2h/Ki MMP-12) is on record as 1340. Besides, the “Selectivity factor/MMP12, MMP-3h” value in experiment [3] (Ki MMP-3h/Ki MMP-12) is 1930. Further, the “Selectivity factor/MMP12, MMP-7h” value in experiment [4] (Ki MMP-7h/Ki MMP-12) was determined as 3333. In experiment [5] (Ki MMP-8h/Ki MMP-12), the “Selectivity factor/MMP12, MMP-8h” value turned out to be 1730. In addition, the “Selectivity factor/MMP12, MMP-9h” value in experiment [6] (Ki MMP-9h/Ki MMP-12) is reported as 3333. The “Selectivity factor/MMP12, MMP-10h” value in experiment [7] (Ki MMP-10h/Ki MMP-12) is on record as 270. Besides, the “improvement of affinity with respect to MMP-12 compared with compound 95 (factor)” value in experiment [8] was found to be 6. Further, the “Selectivity factor/MMP12, MMP-12h” value in experiment [8] (Ki MMP-12h/Ki MMP-12) is on record as 1. The “Selectivity factor/MMP12, MMP-13h” value in experiment [9] (Ki MMP-13h/Ki MMP-12) is on record as 660. Also, the “Selectivity factor/MMP12, MMP-14h” value in experiment [10] (Ki MMP-14h/Ki MMP-12) is listed as 395. Also, in experiment [11], the “selectivity factor F = Ki MMP-x/Ki MMP-12” value is above 100.
For `NC(=O)CC[C@H](NC(=O)[C@H](CCC(=O)O)NC(=O)CCc1ccc(-c2cc(-c3ccccc3)cs2)cc1)C(N)=O` [Compound 99, (S)-5-((S)-1,5-diamino-1,5-dioxopentan-2-ylamino)-5-oxo-4-(3-(4-(4-phenylthiophen-2-yl)phenyl)propanamido)pentanoic acid], the Ki is above 10000 nM in [1]; above 1000 nM in experiment [2]; above 10000 nM in experiment [3]; above 10000 nM in [4]; above 1000 nM in experiment [5]; above 5000 nM in experiment [6]. Besides, the Ki in experiment [7] is above 1000 nM; in experiment [8], 5.4 nM; in experiment [9], 522 nM; in experiment [10], above 1000 nM. Besides, the “selectivity factor F = Ki MMP-x/Ki MMP-12” value in experiment [11] is listed as above 100.
As to `NC(=O)[C@H](CC(=O)O)NC(=O)[C@H](CCC(=O)O)NC(=O)CCc1ccc(-c2cc(-c3ccccc3)cs2)cc1` [Compound 101, (S)-5-((S)-1-amino-3-carboxy-1-oxopropan-2-ylamino)-5-oxo-4-(3-(4-(4-phenylthiophen-2-yl)phenyl)propanamido)pentanoic acid], the Ki in [1] was above 100000 nM; in [2], above 1000 nM; in experiment [3], above 5000 nM; in experiment [4] it was above 100000 nM; in experiment [5] it was 379 nM; in experiment [6], above 5000 nM. Also, the inhibitory constant (Ki) in experiment [7] was 571 nM; in experiment [8] it was 2.56 nM; in experiment [9], 933 nM; in [10] it was above 1000 nM. Besides, the “selectivity factor F = Ki MMP-x/Ki MMP-12” value in experiment [11] is listed as above 100.
On to `NC(=O)[C@H](CCCC(=O)O)NC(=O)[C@H](CCC(=O)O)NC(=O)CCc1ccc(-c2cc(-c3ccccc3)cs2)cc1` [Compound 103, (S)-6-amino-5-((S)-4-carboxy-2-(3-(4-(4-phenylthiophen-2-yl)phenyl)propanamido)butanamido)-6-oxohexanoic acid], for which the Ki in [1] was above 10000 nM; in [2] it was above 1000 nM; in [3], above 5000 nM; in [4] it was above 5000 nM; in experiment [5], 656 nM; in experiment [6], above 5000 nM. Also, the Ki in experiment [7] is 845 nM; in experiment [8], 2.9 nM; in [9], 563 nM; in experiment [10], above 1000 nM. The “selectivity factor F = Ki MMP-x/Ki MMP-12” value in [11] is on record as above 100.
